# In ChEMBL document CHEMBL1201862, “PubChem BioAssay data set” (2004):
# Activity calls are given as the source filed them.
# Columns and labels:
# Saccharomyces cerevisiae = assay: NALP1 inhibitor project selectivity study, Caspase-1/ASC signal blockade IC50 in S. cerevisiae (AID 488863); format: functional, organism-based
# [1] = biological target: NACHT, LRR and PYD domains-containing protein 1 (Homo sapiens, UniProt Q9C000); assay: NALP1 inhibitors in yeast, dose response, luminescent (AID 488860); format: functional
# [2] = biological target: T1, Calpain-2 catalytic subunit (Sus scrofa, UniProt P43367); assay: pig calpain II inhibitor potency, dose response, biochemical, fluorogenic peptide substrate (AID 1420); format: functional
# T1 sequence (P43367 whole entry): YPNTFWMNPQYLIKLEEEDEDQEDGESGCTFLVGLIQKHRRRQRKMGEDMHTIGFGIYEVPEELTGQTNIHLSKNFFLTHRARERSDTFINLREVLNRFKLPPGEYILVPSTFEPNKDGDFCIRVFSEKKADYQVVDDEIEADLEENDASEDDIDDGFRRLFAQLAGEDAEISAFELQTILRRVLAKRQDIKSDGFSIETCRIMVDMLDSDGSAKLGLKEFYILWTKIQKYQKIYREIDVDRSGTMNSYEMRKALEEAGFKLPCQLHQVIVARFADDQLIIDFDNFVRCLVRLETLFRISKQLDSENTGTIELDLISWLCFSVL
# [3] = biological target: NACHT, LRR and PYD domains-containing protein 3 (Homo sapiens, UniProt Q96P20); assay: NALP3 inhibitors in yeast, dose response, luminescent (AID 488799); format: functional
# [4] = Luminescence Cell-Based Dose Response HTS to Identify Activators of Luciferase Translation or Activity in H4 […] Cells. [Related pubchem assays: 1829 (Project Summary), 1814 (Primary HTS)]; format: functional
# H4 = assay: Luminescence Cell-Based Dose Response HTS to Identify Activators of 5'UTR Stem-Loop Driven Prion Protein mRNA Translation in H4 Neuroglioblastoma Cells. [Related pubchem assays: 1829 (Project Summary), 1814 (Primary HTS)]; format: functional; settings: Homo sapiens
# [5] = Luminescence Cell-Based Dose Confirmation HTS to Identify Activators of 5'UTR Stem-Loop Driven Alpha-Synuclein mRNA Translation in H4 Neuroglioblastoma Cells. [Related pubchem assays: 1829 (Project Summary), 1814 (Primary HTS)]; format: functional
# Trypsin = Trypsin (Sus scrofa, UniProt P00761); assay: porcine trypsin inhibitors, dose response, selectivity assay for Rce1 protease inhibitor project, biochemical, quenched peptide fluorescence, cherry-pick (AID 488789)
# CAAX prenyl protease 2 = CAAX prenyl protease 2 (Saccharomyces cerevisiae S288c, UniProt Q03530); format: biochemical
# [6] = biological target: T2, DNA dC->dU-editing enzyme APOBEC-3G (Homo sapiens, UniProt Q9HC16); assay: Dose Response confirmation of small molecule APOBEC3G DNA Deaminase Inhibitors via a fluorescence-based single-stranded DNA deaminase assay. [Related pubchem assays (depositor defined):AID493012, AID493028]; format: functional
# [7] = biological target: T3, DNA dC->dU-editing enzyme APOBEC-3A (Homo sapiens, UniProt P31941); assay: APOBEC3A DNA deaminase inhibitors, dose response, biochemical (AID 504722); format: functional
# Coagulation factor XII = biological target: T4, Coagulation factor XII (Homo sapiens, UniProt P00748); assay: FXIIa inhibitor potency, concentration-response, biochemical (AID 716); format: functional
# T4 sequence (P00748 whole entry): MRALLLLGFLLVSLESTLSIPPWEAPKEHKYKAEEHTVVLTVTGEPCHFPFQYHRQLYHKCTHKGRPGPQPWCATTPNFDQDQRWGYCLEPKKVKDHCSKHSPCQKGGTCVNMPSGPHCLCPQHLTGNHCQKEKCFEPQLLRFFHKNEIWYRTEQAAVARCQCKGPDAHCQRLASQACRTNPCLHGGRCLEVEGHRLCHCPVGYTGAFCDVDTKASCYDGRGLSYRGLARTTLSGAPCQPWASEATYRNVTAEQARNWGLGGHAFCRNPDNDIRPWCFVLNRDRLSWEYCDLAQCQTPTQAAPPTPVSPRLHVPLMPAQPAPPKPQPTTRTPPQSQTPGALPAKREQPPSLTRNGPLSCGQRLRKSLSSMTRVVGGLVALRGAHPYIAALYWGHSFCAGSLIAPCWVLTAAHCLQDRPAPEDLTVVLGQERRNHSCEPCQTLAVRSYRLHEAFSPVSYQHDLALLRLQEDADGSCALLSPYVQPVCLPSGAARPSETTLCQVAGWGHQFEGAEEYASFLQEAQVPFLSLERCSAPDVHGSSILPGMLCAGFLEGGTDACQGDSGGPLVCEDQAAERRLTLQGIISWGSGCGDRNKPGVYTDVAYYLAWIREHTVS
# Cytochrome P450 2C9 = Cytochrome P450 2C9 (Homo sapiens, UniProt P11712)
# [8] = biological target: Intestinal-type alkaline phosphatase (Homo sapiens, UniProt P09923); assay: Dose Response confirmation of uHTS hits from a small molecule inhibitors of human intestinal alkaline phosphatase via a luminescent assay. [Related pubchem assays (depositor defined):AID2544, AID2574]; format: functional
# Cytochrome P450 2C19 = Cytochrome P450 2C19 (Homo sapiens, UniProt P33261); assay: Cytochrome panel assay with activity outcomes. Panel member name: p450-cyp2c19 Compounds with AC50 equal or less than 10 uM are considered active; format: functional; settings: read-out: AC50
# Cytochrome P450 2D6 = Cytochrome P450 2D6 (Homo sapiens, UniProt P10635);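 note: CYP2D6 member of a cytochrome P450 panel assay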
# Hexokinase HKDC1 = biological target: T5, Hexokinase HKDC1 (Homo sapiens, UniProt Q2TB90); assay: HKDC1 hexokinase activators, dose response, biochemical, W721R variant (AID 504730); format: functional
# T5 sequence (Q2TB90 whole entry): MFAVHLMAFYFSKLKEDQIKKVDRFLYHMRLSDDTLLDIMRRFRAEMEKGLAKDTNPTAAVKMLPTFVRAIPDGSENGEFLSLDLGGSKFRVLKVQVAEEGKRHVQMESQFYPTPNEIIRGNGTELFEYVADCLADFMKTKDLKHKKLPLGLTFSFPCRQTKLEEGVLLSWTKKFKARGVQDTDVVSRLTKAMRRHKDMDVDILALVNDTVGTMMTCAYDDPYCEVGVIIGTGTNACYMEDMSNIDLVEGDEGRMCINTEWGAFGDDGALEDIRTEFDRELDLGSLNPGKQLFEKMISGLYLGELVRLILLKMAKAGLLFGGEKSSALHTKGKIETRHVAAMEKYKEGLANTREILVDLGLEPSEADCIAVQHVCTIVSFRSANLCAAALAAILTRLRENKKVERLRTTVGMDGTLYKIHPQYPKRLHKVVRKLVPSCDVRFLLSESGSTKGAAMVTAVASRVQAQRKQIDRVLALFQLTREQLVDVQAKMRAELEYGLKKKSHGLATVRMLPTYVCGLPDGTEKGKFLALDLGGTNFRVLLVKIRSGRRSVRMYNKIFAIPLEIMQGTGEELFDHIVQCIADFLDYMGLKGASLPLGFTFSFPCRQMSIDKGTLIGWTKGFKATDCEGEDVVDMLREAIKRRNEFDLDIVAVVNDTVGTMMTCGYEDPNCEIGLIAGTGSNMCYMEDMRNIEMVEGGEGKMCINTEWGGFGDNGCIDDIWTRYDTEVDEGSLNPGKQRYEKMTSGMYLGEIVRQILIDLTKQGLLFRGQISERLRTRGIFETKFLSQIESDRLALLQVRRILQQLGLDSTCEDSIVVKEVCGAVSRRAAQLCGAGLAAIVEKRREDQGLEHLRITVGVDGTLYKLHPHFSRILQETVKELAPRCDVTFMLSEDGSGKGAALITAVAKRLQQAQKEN
# Hexokinase-1 = Hexokinase-1 (Homo sapiens, UniProt P19367); assay: hexokinase 1 activators, dose response, selectivity assay for HKDC1 activator project, biochemical (AID 504762); format: functional
# [9] = biological target: DNA damage-inducible transcript 3 protein (Mus musculus, UniProt P35639); format: functional, Cricetulus griseus
# [10] = Luminescence Cell-Based Dose Retest to Confirm Inhibitors of Cancer Stem Cells. [Related pubchem assays (depositor defined):AID2717, AID2721]; format: functional; settings: Homo sapiens
# T-cell = assay: inhibitors of CD8+ T cell–vesicle binding, dose response, mouse 2C CD8+ T cells, flow cytometry (AID 485284); format: functional
# [11] = cytotoxicity in NIH/3T3 mouse fibroblasts, dose response, cytotoxicity control, cell-based, mouse embryonic fibroblasts, dry powder, set 2 (AID 493247); format: functional; settings: Fibroblast
# [12] = biological target: G-protein coupled receptor 55 (Homo sapiens, UniProt Q9Y2T6); assay: GPR55 agonists via beta-arrestin recruitment, primary screen, imaging, U2OS cells, beta-arrestin-GFP redistribution (AID 1961); format: functional
# Hexokinase = Hexokinase (Trypanosoma brucei, UniProt Q38C41); assay: Confirmation assay for inhibitors of Trypanosoma brucei hexokinase 1-Analogue-first series. [Related pubchem assays (depositor defined):AID1430, AID1632, AID2516, AID2560, AID2579, AID2600, AID449725, AID492951]; format: functional
# [13] = biological target: Voltage-dependent T-type calcium channel subunit alpha-1H (Homo sapiens, UniProt O95180); assay: Cav3.2 T-type channel inhibitors, cell-based, synthetic library set 1, calcium flux (AID 493022); format: functional
# [14] = biological target: T3, DNA dC->dU-editing enzyme APOBEC-3A; assay: Dose Response confirmation of small molecule APOBEC3A DNA Deaminase Inhibitors via a fluorescence-based single-stranded DNA deaminase assay. [Related pubchem assays (depositor defined):AID493011, AID493024]; format: functional
# [15] = biological target: T2, DNA dC->dU-editing enzyme APOBEC-3G; format: functional
# T2 sequence (Q9HC16 whole entry): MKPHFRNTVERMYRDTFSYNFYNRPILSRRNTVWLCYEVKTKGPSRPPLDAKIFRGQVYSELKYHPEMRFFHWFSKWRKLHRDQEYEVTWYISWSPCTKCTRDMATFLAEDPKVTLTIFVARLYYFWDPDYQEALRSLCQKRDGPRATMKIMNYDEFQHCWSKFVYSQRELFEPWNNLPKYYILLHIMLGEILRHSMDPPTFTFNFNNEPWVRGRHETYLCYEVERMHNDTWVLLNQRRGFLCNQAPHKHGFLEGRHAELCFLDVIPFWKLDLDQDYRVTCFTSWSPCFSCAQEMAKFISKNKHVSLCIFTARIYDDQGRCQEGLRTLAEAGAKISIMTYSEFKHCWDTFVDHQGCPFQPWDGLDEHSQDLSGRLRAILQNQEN
# T3 sequence (P31941 whole entry): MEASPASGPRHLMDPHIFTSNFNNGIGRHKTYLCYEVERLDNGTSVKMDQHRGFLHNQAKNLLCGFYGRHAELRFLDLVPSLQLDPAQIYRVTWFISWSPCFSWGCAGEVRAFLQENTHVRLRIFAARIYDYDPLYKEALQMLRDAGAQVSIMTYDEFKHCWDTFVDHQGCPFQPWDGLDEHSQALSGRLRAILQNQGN
# G-protein coupled receptor 55, sequence (Q9Y2T6 whole entry): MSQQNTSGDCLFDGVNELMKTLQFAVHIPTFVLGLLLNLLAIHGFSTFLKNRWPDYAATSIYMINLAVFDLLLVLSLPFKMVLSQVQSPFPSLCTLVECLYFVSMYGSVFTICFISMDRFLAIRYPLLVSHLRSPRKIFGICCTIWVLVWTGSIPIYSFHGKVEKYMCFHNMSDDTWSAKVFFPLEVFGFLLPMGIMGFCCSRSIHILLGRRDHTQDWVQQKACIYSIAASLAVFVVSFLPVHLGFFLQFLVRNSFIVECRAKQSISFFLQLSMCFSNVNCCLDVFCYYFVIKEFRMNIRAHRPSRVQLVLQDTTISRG
# Cytochrome P450 2C9, sequence (P11712 whole entry): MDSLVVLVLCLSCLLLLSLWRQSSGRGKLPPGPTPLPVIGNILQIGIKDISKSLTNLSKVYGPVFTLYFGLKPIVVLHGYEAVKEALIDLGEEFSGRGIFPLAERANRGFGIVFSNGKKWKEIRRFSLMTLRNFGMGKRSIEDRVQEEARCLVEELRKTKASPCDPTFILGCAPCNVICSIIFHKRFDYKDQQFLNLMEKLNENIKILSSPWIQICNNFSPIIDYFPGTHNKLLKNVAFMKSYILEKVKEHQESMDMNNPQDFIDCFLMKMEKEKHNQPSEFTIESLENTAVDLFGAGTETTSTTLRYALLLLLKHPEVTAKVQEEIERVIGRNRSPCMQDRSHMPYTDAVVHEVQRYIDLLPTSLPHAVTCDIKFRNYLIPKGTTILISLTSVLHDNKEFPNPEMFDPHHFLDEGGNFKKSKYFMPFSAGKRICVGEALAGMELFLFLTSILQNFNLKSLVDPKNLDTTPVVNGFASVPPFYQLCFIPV
# Intestinal-type alkaline phosphatase, sequence (P09923 whole entry): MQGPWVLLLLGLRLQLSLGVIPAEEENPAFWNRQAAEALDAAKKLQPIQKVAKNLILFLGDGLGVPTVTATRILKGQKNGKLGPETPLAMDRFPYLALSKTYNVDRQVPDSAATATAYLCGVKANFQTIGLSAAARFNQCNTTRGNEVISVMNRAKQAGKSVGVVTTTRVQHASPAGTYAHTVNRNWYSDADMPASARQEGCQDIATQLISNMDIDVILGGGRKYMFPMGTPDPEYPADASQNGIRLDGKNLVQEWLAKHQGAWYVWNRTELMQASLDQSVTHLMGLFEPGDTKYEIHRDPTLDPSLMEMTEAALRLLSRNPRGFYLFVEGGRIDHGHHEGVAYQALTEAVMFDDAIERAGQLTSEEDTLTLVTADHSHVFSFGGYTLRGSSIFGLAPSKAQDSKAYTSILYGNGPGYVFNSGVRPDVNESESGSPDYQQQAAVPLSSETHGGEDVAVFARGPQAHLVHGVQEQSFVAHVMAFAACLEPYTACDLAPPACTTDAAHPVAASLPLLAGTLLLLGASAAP
# Hexokinase, sequence (Q38C41 whole entry): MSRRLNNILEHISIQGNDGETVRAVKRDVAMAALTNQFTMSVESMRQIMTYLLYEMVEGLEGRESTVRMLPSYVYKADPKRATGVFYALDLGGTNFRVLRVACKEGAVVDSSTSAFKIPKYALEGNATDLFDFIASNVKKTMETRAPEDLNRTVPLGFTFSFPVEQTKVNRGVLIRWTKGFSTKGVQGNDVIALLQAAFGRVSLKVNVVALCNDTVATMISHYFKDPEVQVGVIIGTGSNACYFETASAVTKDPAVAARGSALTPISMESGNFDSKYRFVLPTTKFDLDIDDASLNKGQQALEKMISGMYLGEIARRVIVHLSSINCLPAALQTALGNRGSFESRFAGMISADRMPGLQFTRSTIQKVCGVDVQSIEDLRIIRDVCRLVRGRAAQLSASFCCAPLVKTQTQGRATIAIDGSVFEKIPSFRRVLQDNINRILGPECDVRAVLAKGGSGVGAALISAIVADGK
# NACHT, LRR and PYD domains-containing protein 3, sequence (Q96P20 whole entry, the tested form may be a part): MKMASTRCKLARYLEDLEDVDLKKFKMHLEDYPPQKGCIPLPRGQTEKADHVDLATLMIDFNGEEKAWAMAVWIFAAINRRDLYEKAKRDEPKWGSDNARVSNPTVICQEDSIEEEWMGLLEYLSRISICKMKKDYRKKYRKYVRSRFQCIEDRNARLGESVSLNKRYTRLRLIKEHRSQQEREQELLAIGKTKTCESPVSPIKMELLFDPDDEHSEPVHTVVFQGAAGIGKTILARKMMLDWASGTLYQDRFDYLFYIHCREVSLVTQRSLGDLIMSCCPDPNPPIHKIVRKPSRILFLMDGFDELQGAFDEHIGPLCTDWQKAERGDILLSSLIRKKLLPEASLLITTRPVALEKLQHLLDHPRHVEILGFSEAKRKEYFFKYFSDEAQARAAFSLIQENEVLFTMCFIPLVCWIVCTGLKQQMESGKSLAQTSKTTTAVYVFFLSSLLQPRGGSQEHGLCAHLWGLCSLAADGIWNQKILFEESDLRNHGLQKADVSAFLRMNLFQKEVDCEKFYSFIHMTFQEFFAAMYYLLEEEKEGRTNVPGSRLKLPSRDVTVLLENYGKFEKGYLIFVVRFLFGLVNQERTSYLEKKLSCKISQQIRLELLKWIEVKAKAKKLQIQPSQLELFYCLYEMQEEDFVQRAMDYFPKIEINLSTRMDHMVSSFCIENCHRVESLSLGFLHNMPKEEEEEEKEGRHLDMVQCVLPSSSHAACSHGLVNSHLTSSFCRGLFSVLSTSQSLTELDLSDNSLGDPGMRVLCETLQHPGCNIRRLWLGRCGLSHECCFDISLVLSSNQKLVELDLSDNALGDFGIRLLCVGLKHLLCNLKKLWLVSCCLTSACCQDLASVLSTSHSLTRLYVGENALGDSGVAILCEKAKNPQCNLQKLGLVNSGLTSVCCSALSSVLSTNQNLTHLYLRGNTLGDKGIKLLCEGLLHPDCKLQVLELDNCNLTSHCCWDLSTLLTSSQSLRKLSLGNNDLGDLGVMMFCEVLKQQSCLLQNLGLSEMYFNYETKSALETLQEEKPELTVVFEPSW
# Trypsin, sequence (P00761 whole entry): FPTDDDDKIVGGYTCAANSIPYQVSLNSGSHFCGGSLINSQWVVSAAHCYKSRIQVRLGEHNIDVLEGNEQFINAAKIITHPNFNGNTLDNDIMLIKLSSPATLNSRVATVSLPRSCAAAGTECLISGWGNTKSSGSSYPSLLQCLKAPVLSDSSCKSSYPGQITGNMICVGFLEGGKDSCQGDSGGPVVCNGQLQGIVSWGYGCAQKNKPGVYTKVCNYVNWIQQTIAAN
# Cytochrome P450 2C19, sequence (P33261 whole entry): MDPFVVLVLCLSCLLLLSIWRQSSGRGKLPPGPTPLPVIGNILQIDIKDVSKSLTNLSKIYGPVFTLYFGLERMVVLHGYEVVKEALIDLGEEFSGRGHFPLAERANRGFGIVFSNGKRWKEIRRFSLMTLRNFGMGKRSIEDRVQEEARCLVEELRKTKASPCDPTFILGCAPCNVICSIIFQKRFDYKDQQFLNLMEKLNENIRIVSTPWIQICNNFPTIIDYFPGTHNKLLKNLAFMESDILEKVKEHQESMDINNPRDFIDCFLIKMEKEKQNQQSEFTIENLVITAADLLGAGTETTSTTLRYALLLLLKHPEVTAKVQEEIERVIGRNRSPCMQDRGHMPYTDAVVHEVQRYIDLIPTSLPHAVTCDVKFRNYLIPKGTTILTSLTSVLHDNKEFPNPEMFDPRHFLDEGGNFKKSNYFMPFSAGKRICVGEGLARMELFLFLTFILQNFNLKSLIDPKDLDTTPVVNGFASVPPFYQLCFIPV
# DNA damage-inducible transcript 3 protein, sequence (P35639 whole entry): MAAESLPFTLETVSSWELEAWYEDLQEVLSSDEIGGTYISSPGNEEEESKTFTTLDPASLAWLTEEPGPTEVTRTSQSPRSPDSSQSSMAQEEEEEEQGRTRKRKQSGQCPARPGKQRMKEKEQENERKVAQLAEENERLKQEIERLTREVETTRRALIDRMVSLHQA
# Cytochrome P450 2D6, sequence (P10635 whole entry): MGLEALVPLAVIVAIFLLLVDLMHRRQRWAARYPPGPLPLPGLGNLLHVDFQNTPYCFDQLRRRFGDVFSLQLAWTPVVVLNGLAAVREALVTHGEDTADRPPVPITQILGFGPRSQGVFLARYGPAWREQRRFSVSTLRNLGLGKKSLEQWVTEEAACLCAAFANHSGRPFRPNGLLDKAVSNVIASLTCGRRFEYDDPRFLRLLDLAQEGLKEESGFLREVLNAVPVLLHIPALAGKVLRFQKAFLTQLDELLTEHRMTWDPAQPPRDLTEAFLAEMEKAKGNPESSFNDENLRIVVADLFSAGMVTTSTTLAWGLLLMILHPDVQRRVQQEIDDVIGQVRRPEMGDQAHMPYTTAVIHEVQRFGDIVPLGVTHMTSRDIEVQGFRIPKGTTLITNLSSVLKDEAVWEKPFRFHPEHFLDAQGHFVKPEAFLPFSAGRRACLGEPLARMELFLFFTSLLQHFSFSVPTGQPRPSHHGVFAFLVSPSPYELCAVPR
structure (smiles),measurement,setting,value
O=S(=O)(Nc1ccc(-n2cccc2)cc1)c1ccc(Cl)cc1Cl,IC50,Saccharomyces cerevisiae,56.8 µM (active)
same,IC50,[1],18.3 µM (active)
same,IC50,[2],9.85 µM (not active)
COc1ccc(NC(=O)C#Cc2ccccc2)cc1,IC50,[3],8.01 µM (active)
same,EC50,[4],32.6 µM (active)
same,EC50,H4,22.1 µM (active)
same,EC50,[5],0.192 µM (active)
COc1ccccc1-c1cc(C(F)(F)F)n2ncc(S(=O)(=O)c3ccccc3)c2n1,AC50,Trypsin,13.1 µM (active)
same,AC50,CAAX prenyl protease 2,75.9 µM (active)
Sc1nnc(-c2ccc(Cl)cc2)n1CC1CCCO1 (configuration not stated),IC50,[6],6.14 µM (active)
same,IC50,[7],> 100 µM (inactive)
COc1ccccc1-n1c(S)nnc1CNC(=O)COc1ccccc1,IC50,Coagulation factor XII,> 50 µM (inactive)
O=c1c2c(-c3cccs3)csc2ncn1-c1ccc(Br)cc1,AC50,Cytochrome P450 2C9,3.98 µM (inconclusive)
same,IC50,[8],> 100 µM (inactive)
same,AC50,Cytochrome P450 2C19,2.24 µM (inconclusive)
same,AC50,Cytochrome P450 2D6,3.55 µM (inconclusive)
Cn1c(=O)c2c(nc(NN/C=C3/C(=O)NC(=S)N(C4CCCCC4)C3=O)n2C)n(C)c1=O,EC50,Hexokinase HKDC1,> 80 µM (inactive)
same,EC50,Hexokinase-1,75.9 µM (inactive)
NC(=O)CC(NC(=O)Cc1cccc2ccccc12)c1ccc(NCc2ccccc2)c([N+](=O)[O-])c1 (configuration not stated),Absolute IC50 (CHOP),[9],10 µM
same,AC50,[10],5.5 µM (active)
COc1ccc2c(c1)C1NC(S)=NC(C)(O2)C1C(=O)Nc1ccc(Cl)cc1 (configuration not stated),EC50,T-cell,31.3 µM (inactive)
COc1cc2c(cc1OC)CN(C(=O)C1CCCN(Cc3ccccc3)C1)CC2 (configuration not stated),AC50,[11],52.7 µM (active)
CC(C)C[C@@H](COc1ccccc1)N1CCN(CCc2ccccc2)CCC1=O,EC50,[12],2.69 µM (active)
CC(C)(C)c1ccc(C(=O)Nc2cc(Cl)c(Cl)cc2C(=O)O)cc1,IC50,Hexokinase,1.36 µM (active)
O=C(COc1ccc(F)cc1)Nc1nnc(-c2ccc(F)cc2)o1,EC50,[13],10 µM (active)
Cc1cc(N/N=C/c2ccc(O)cc2)nc(NS(=O)(=O)c2ccccc2)n1,IC50,[14],21.9 µM (active)
same,IC50,[15],72.6 µM (active)
